Assay results taken from patent publication US11821892B2, “Nanobubbles” (Purdue Research Foundation, priority 2014, dated 2023).

Tests used:
[1] = tested on: HIF-1; assay: Immunohistochemistry of mouse bladder tumors, HIF-1; format: in vivo; conditions: ex vivo mouse bladder tumor, compared to control
Procedure: (§1) Histology slides were prepared and immunohistochemistry was performed at Immunohistochemistry Laboratory at IU Health Pathology. Harvested organ tissue and bladder tumors were fixed in formalin-free IHC Zinc Fixative, embedded in paraffin, and sectioned into 5 μm slices. HIF-1 and VEGF immunohistochemistry was performed using buffered zinc formalin fixed tumor section. Blocking, antigen retrieval, and primary and secondary antibody staining were performed […]. The tissue sections were imaged using Leica DMi1 inverted microscope, and image processing was performed using ImageJ software (Research Services, National Institute of Health). Each tissue section was imaged under ×20 and ×40 magnification, composite images were converted to RGB stacks and integrated density of staining was calculated.
(§2) Angiogenesis and high density of blood vessels has been correlated with poor prognosis, metastasis, and bladder cancer invasion in clinical studies.

[2] = tested on: MB49 cells; assay: In vitro beam steering factorial design, MB49 cell viability; format: cell-based, mouse
[3] = tested on: MB49 bladder tumor; assay: Intravesical treatment with ultrasound beam steering in orthotopic MB49 bladder cancer mouse model; conditions: in vivo
Text: (§3) Female C57BL/6 mice were anesthetized by 1-2% isoflurane gas inhalation at 2 L/min. Electrocauterization technique was used to create a minor injury on the wall of the bladder for MB49 cells to adhere to. A 24 gauge Teflon catheter (Terumo Surflo PTFE I.V. Catheters, Fisher Scientific) was inserted into the bladder through the urethra. Minor pressure was applied onto the bladder area to release the urine from the bladder. A wire, connected to the electrocautery unit was then instilled into the bladder through the catheter. 1×10^4 MB49 cells were then instilled into the bladder; dwelling time was approximately 20 minutes to allow the cells to adhere to the injured bladder wall.
(§4) After the bubbles were injected intravesically, a pulsed wave Doppler beam was applied for five minutes and B-mode images were recorded.
(§5) The mice were imaged 48 hours after the instillation of the tumors and treatment was administered every other day based on previously established protocols.
(§6) 3D images of bladder tumor were taken every other day using the Vevo 2100 ultrasound imaging system (Fujifilm VisualSonics Inc., Toronto CA). Vevo Lab software was used to manually segment given 3D images in 2D slices, with step sizes that can be as small as 10 μm. Segmentation of a 3D image allowed accurate volume measurements to be taken from each 3D image. […]

[4] = tested on: VEGF; assay: Immunohistochemistry of mouse bladder tumors, VEGF; format: in vivo; conditions: ex vivo mouse bladder tumor, compared to control
Procedure: as §1, §2

[5] = tested on: MB49 bladder tumor; conditions: MMC 1 μg/mL; ONB-MMC 0.5 μg/mL MMC and 2 mg/mL ONB; intravesical
Text: as §3, §4, §5, §6

## CO[C@@]12[C@H](COC(N)=O)C3=C(C(=O)C(C)=C(N)C3=O)N1C[C@@H]1N[C@@H]12 [MMC, mitomycin-C]
[1]
  HIF-1 expression (IHC): significantly lower
[2]; MMC 0.05-5 μg/mL, ONB 0.2-20 mg/mL
  effect on MB49 cell viability (factorial design): significant in decreasing cell viability
[2]; beam ON/OFF, MMC 0.5 μg/mL and ONB 2 mg/mL at medium concentration
  effect of ultrasound beam steering on cell viability: No significant effect
[3]
  average mouse body weights compared to ONB-MMC groups: significantly lower
[4]
  VEGF expression (IHC): significantly lower
[5]
  tumor volume compared to CTRL: significant in reducing the tumor volume
